Active and inactive are the calls of the source. No rule for the calls is given here.
Test system: CCRIS mutagenicity, Ames/micronucleus/aberration tests
Experiment: CCRIS mutagenicity studies
Conditions: Test System: AMES SALMONELLA TYPHIMURIUM
[1] = Strain/Indicator: TA98, Metabolic Activation: NONE, Method: STANDARD PLATE
[2] = Strain/Indicator: TA100, Metabolic Activation: NONE, Method: STANDARD PLATE
[3] = Strain/Indicator: TA97, Metabolic Activation: NONE, Method: PREINCUBATION
[4] = Strain/Indicator: TA102, Metabolic Activation: NONE, Method: PREINCUBATION
[5] = Strain/Indicator: TA102, Metabolic Activation: RAT, LIVER, S-9, AROCLOR 1254, Method: PREINCUBATION

Measured: mutagenic call

O=[N+]([O-])c1cccc(CO/N=C/c2nc3cc([N+](=O)[O-])ccc3n2Cc2ccc(Cl)cc2)c1
inactive: [1] inactive; negative | Strain/Indicator: TA98, Metabolic Activation: RAT, LIVER, S-9, PHENOBARBITAL AND BETA-NAPHTHOFLAVONE, Method: STANDARD PLATE inactive; negative | [2] inactive; negative | Strain/Indicator: TA100, Metabolic Activation: RAT, LIVER, S-9, PHENOBARBITAL AND BETA-NAPHTHOFLAVONE, Method: STANDARD PLATE inactive; negative

Cc1ccco1
inactive: [3] inactive; negative | Strain/Indicator: TA98, Metabolic Activation: HAMSTER, LIVER, S-9, AROCLOR 1254 (10%), Method: PREINCUBATION inactive; negative | Strain/Indicator: TA98, Metabolic Activation: HAMSTER, LIVER, S-9, AROCLOR 1254 (30%), Method: PREINCUBATION inactive; negative | Strain/Indicator: TA98, Metabolic Activation: NONE, Method: PREINCUBATION inactive; negative | [1] inactive; negative | Strain/Indicator: TA98, Metabolic Activation: RAT, LIVER, S-9, AROCLOR 1254 (10%), Method: PREINCUBATION inactive; negative | Strain/Indicator: TA98, Metabolic Activation: RAT, LIVER, S-9, AROCLOR 1254 (30%), Method: PREINCUBATION inactive; negative | Strain/Indicator: TA98, Metabolic Activation: RAT, LIVER, S-9, AROCLOR 1254, Method: PREINCUBATION inactive; negative | Strain/Indicator: TA98, Metabolic Activation: S-9, Method: STANDARD PLATE inactive; negative | Strain/Indicator: TA100, Metabolic Activation: HAMSTER, LIVER, S-9, AROCLOR 1254 (10%), Method: PREINCUBATION inactive; negative | Strain/Indicator: TA100, Metabolic Activation: HAMSTER, LIVER, S-9, AROCLOR 1254 (30%), Method: PREINCUBATION inactive; negative | Strain/Indicator: TA100, Metabolic Activation: NONE, Method: PREINCUBATION inactive; negative | [2] inactive; negative | Strain/Indicator: TA100, Metabolic Activation: RAT, LIVER, S-9, AROCLOR 1254 (10%), Method: PREINCUBATION inactive; negative | Strain/Indicator: TA100, Metabolic Activation: RAT, LIVER, S-9, AROCLOR 1254 (30%), Method: PREINCUBATION inactive; negative | Strain/Indicator: TA100, Metabolic Activation: RAT, LIVER, S-9, AROCLOR 1254, Method: PREINCUBATION inactive; negative | Strain/Indicator: TA100, Metabolic Activation: S-9, Method: STANDARD PLATE inactive; negative | Strain/Indicator: TA102, Metabolic Activation: HAMSTER, LIVER, S-9, AROCLOR 1254 (10 OR 30%), Method: PREINCUBATION inactive; negative | [4] inactive; negative | Strain/Indicator: TA102, Metabolic Activation: RAT, LIVER, S-9, AROCLOR 1254 (10%), Method: PREINCUBATION inactive; negative | Strain/Indicator: TA102, Metabolic Activation: RAT, LIVER, S-9, AROCLOR 1254 (30%), Method: PREINCUBATION inactive; negative | [5] inactive; negative | Strain/Indicator: TA104, Metabolic Activation: HAMSTER, LIVER, S-9, AROCLOR 1254 (5%), Method: PREINCUBATION inactive; negative | Strain/Indicator: TA104, Metabolic Activation: HAMSTER, LIVER, S-9, AROCLOR 1254 (10 OR 30%), Method: PREINCUBATION inactive; negative | Strain/Indicator: TA104, Metabolic Activation: NONE, Method: PREINCUBATION inactive; negative | Strain/Indicator: TA104, Metabolic Activation: RAT, LIVER, S-9, AROCLOR 1254 (5%), Method: PREINCUBATION inactive; negative | Strain/Indicator: TA104, Metabolic Activation: RAT, LIVER, S-9, AROCLOR 1254 (10 OR 30%), Method: PREINCUBATION inactive; negative | Strain/Indicator: TA1535, Metabolic Activation: HAMSTER, LIVER, S-9, AROCLOR 1254 (10 OR 30%), Method: PREINCUBATION inactive; negative | Strain/Indicator: TA1535, Metabolic Activation: NONE, Method: PREINCUBATION inactive; negative | Strain/Indicator: TA1535, Metabolic Activation: RAT, LIVER, S-9, AROCLOR 1254 (10 OR 30%), Method: PREINCUBATION inactive; negative

CC(C)(CO)[C@@H](O)C(=O)NCCC(=O)O
inactive: [3] inactive; negative | Strain/Indicator: TA97, Metabolic Activation: RAT, LIVER, S-9, AROCLOR 1254, Method: PREINCUBATION inactive; negative | Strain/Indicator: TA97A, Metabolic Activation: NONE, Method: PREINCUBATION inactive; negative | Strain/Indicator: TA97A, Metabolic Activation: RAT, LIVER, S-9, AROCLOR 1254, Method: PREINCUBATION inactive; negative | [4] inactive; negative | [5] inactive; negative

NS(=O)(=O)c1cccc2cccnc12
inactive: Strain/Indicator: TA100, Metabolic Activation: S-9, Method: PREINCUBATION inactive; negative
